# ± gives the expanded uncertainty stated by the source.
# Experiments:
# [1] = 101 kPa, Liquid
# [2] = xn = mol fraction of the nth substance listed; conditions: 101 kPa, Liquid
# [3] = mn = molality of the nth substance listed, in mol/kg; conditions: 101 kPa, Liquid
smiles,measurement,setting,value
CN(C)C=O [dimethylformamide],mass density,[1]; 293.15 K,948.742 ± 0.38 kg/m3
same,mass density,[1]; 298.15 K,943.976 ± 0.39 kg/m3
same,mass density,[1]; 303.15 K,939.201 ± 0.4 kg/m3
same,mass density,[1]; 308.15 K,934.425 ± 0.4 kg/m3
CN(C)C=O [dimethylformamide] + O,mass density,"[2]; 293.15 K, x2 = 0",948.742 ± 0.38 kg/m3
same,mass density,"[2]; 293.15 K, x2 = 0.1",953.736 ± 0.35 kg/m3
same,mass density,"[2]; 293.15 K, x2 = 0.2",959.305 ± 0.31 kg/m3
same,mass density,"[2]; 293.15 K, x2 = 0.3",965.7 ± 0.28 kg/m3
same,mass density,"[2]; 293.15 K, x2 = 0.4",972.992 ± 0.25 kg/m3
same,mass density,"[2]; 293.15 K, x2 = 0.5",980.854 ± 0.22 kg/m3
same,mass density,"[2]; 293.15 K, x2 = 0.6",988.587 ± 0.19 kg/m3
same,mass density,"[2]; 293.15 K, x2 = 0.7",995.526 ± 0.16 kg/m3
same,mass density,"[2]; 293.15 K, x2 = 0.8",999.822 ± 0.14 kg/m3
same,mass density,"[2]; 293.15 K, x2 = 0.9",999.742 ± 0.13 kg/m3
same,mass density,"[2]; 293.15 K, x2 = 0.92",999.208 ± 0.13 kg/m3
same,mass density,"[2]; 293.15 K, x2 = 0.94",998.608 ± 0.13 kg/m3
same,mass density,"[2]; 293.15 K, x2 = 0.96",998.059 ± 0.13 kg/m3
same,mass density,"[2]; 293.15 K, x2 = 0.98",997.768 ± 0.13 kg/m3
same,mass density,"[2]; 298.15 K, x2 = 0",943.976 ± 0.39 kg/m3
same,mass density,"[2]; 298.15 K, x2 = 0.1",948.984 ± 0.35 kg/m3
same,mass density,"[2]; 298.15 K, x2 = 0.2",954.568 ± 0.32 kg/m3
same,mass density,"[2]; 298.15 K, x2 = 0.3",960.987 ± 0.29 kg/m3
same,mass density,"[2]; 298.15 K, x2 = 0.4",968.301 ± 0.25 kg/m3
same,mass density,"[2]; 298.15 K, x2 = 0.5",976.205 ± 0.23 kg/m3
same,mass density,"[2]; 298.15 K, x2 = 0.6",984.021 ± 0.2 kg/m3
same,mass density,"[2]; 298.15 K, x2 = 0.7",991.172 ± 0.17 kg/m3
same,mass density,"[2]; 298.15 K, x2 = 0.8",995.944 ± 0.15 kg/m3
same,mass density,"[2]; 298.15 K, x2 = 0.9",996.891 ± 0.14 kg/m3
same,mass density,"[2]; 298.15 K, x2 = 0.92",996.65 ± 0.14 kg/m3
same,mass density,"[2]; 298.15 K, x2 = 0.94",996.378 ± 0.14 kg/m3
same,mass density,"[2]; 298.15 K, x2 = 0.96",996.181 ± 0.14 kg/m3
same,mass density,"[2]; 298.15 K, x2 = 0.98",996.264 ± 0.13 kg/m3
same,mass density,"[2]; 303.15 K, x2 = 0",939.201 ± 0.4 kg/m3
same,mass density,"[2]; 303.15 K, x2 = 0.1",944.221 ± 0.36 kg/m3
same,mass density,"[2]; 303.15 K, x2 = 0.2",949.818 ± 0.33 kg/m3
same,mass density,"[2]; 303.15 K, x2 = 0.3",956.248 ± 0.29 kg/m3
same,mass density,"[2]; 303.15 K, x2 = 0.4",963.582 ± 0.26 kg/m3
same,mass density,"[2]; 303.15 K, x2 = 0.5",971.522 ± 0.23 kg/m3
same,mass density,"[2]; 303.15 K, x2 = 0.6",979.424 ± 0.2 kg/m3
same,mass density,"[2]; 303.15 K, x2 = 0.7",986.773 ± 0.18 kg/m3
same,mass density,"[2]; 303.15 K, x2 = 0.8",992.004 ± 0.16 kg/m3
same,mass density,"[2]; 303.15 K, x2 = 0.9",993.926 ± 0.14 kg/m3
same,mass density,"[2]; 303.15 K, x2 = 0.92",993.962 ± 0.14 kg/m3
same,mass density,"[2]; 303.15 K, x2 = 0.94",993.992 ± 0.14 kg/m3
same,mass density,"[2]; 303.15 K, x2 = 0.96",994.123 ± 0.14 kg/m3
same,mass density,"[2]; 303.15 K, x2 = 0.98",994.548 ± 0.14 kg/m3
same,mass density,"[2]; 308.15 K, x2 = 0",934.425 ± 0.4 kg/m3
same,mass density,"[2]; 308.15 K, x2 = 0.1",939.444 ± 0.36 kg/m3
same,mass density,"[2]; 308.15 K, x2 = 0.2",945.04 ± 0.33 kg/m3
same,mass density,"[2]; 308.15 K, x2 = 0.3",951.488 ± 0.3 kg/m3
same,mass density,"[2]; 308.15 K, x2 = 0.4",958.821 ± 0.27 kg/m3
same,mass density,"[2]; 308.15 K, x2 = 0.5",966.807 ± 0.24 kg/m3
same,mass density,"[2]; 308.15 K, x2 = 0.6",974.79 ± 0.21 kg/m3
same,mass density,"[2]; 308.15 K, x2 = 0.7",982.324 ± 0.18 kg/m3
same,mass density,"[2]; 308.15 K, x2 = 0.8",988.003 ± 0.16 kg/m3
same,mass density,"[2]; 308.15 K, x2 = 0.9",990.852 ± 0.15 kg/m3
same,mass density,"[2]; 308.15 K, x2 = 0.92",991.147 ± 0.15 kg/m3
same,mass density,"[2]; 308.15 K, x2 = 0.94",991.46 ± 0.14 kg/m3
same,mass density,"[2]; 308.15 K, x2 = 0.96",991.894 ± 0.14 kg/m3
same,mass density,"[2]; 308.15 K, x2 = 0.98",992.639 ± 0.14 kg/m3
NC(N)=O [urea] + CN(C)C=O,mass density,"[3]; 293.15 K, m1 = 0.02524",949.268 ± 0.26 kg/m3
same,mass density,"[3]; 293.15 K, m1 = 0.05973",949.989 ± 0.26 kg/m3
same,mass density,"[3]; 293.15 K, m1 = 0.07556",950.317 ± 0.26 kg/m3
same,mass density,"[3]; 293.15 K, m1 = 0.1157",951.155 ± 0.26 kg/m3
same,mass density,"[3]; 293.15 K, m1 = 0.1479",951.829 ± 0.25 kg/m3
same,mass density,"[3]; 293.15 K, m1 = 0.1749",952.395 ± 0.25 kg/m3
same,mass density,"[3]; 293.15 K, m1 = 0.2003",952.924 ± 0.25 kg/m3
same,mass density,"[3]; 293.15 K, m1 = 0.2305",953.553 ± 0.25 kg/m3
same,mass density,"[3]; 298.15 K, m1 = 0.02524",944.504 ± 0.27 kg/m3
same,mass density,"[3]; 298.15 K, m1 = 0.05973",945.228 ± 0.26 kg/m3
same,mass density,"[3]; 298.15 K, m1 = 0.07556",945.556 ± 0.26 kg/m3
same,mass density,"[3]; 298.15 K, m1 = 0.1157",946.396 ± 0.26 kg/m3
same,mass density,"[3]; 298.15 K, m1 = 0.1479",947.074 ± 0.26 kg/m3
same,mass density,"[3]; 298.15 K, m1 = 0.1749",947.644 ± 0.26 kg/m3
same,mass density,"[3]; 298.15 K, m1 = 0.2003",948.173 ± 0.26 kg/m3
same,mass density,"[3]; 298.15 K, m1 = 0.2305",948.805 ± 0.26 kg/m3
same,mass density,"[3]; 303.15 K, m1 = 0.02524",939.731 ± 0.27 kg/m3
same,mass density,"[3]; 303.15 K, m1 = 0.05973",940.469 ± 0.27 kg/m3
same,mass density,"[3]; 303.15 K, m1 = 0.07556",940.781 ± 0.27 kg/m3
same,mass density,"[3]; 303.15 K, m1 = 0.1157",941.642 ± 0.27 kg/m3
same,mass density,"[3]; 303.15 K, m1 = 0.1479",942.307 ± 0.27 kg/m3
same,mass density,"[3]; 303.15 K, m1 = 0.1749",942.893 ± 0.27 kg/m3
same,mass density,"[3]; 303.15 K, m1 = 0.2003",943.423 ± 0.27 kg/m3
same,mass density,"[3]; 303.15 K, m1 = 0.2305",944.061 ± 0.27 kg/m3
same,mass density,"[3]; 308.15 K, m1 = 0.02524",934.955 ± 0.28 kg/m3
same,mass density,"[3]; 308.15 K, m1 = 0.05973",935.685 ± 0.28 kg/m3
same,mass density,"[3]; 308.15 K, m1 = 0.07556",936.015 ± 0.28 kg/m3
same,mass density,"[3]; 308.15 K, m1 = 0.1157",936.861 ± 0.28 kg/m3
same,mass density,"[3]; 308.15 K, m1 = 0.1479",937.543 ± 0.28 kg/m3
same,mass density,"[3]; 308.15 K, m1 = 0.1749",938.117 ± 0.27 kg/m3
same,mass density,"[3]; 308.15 K, m1 = 0.2003",938.649 ± 0.27 kg/m3
same,mass density,"[3]; 308.15 K, m1 = 0.2305",939.284 ± 0.27 kg/m3
NC(N)=O [urea] + O,mass density,"[3]; 293.15 K, m1 = 0.02557",998.624 ± 0.18 kg/m3
same,mass density,"[3]; 293.15 K, m1 = 0.05326",999.077 ± 0.18 kg/m3
same,mass density,"[3]; 293.15 K, m1 = 0.07468",999.427 ± 0.18 kg/m3
same,mass density,"[3]; 293.15 K, m1 = 0.09388",999.747 ± 0.18 kg/m3
same,mass density,"[3]; 293.15 K, m1 = 0.1236",1000.23 ± 0.18 kg/m3
same,mass density,"[3]; 293.15 K, m1 = 0.1442",1000.57 ± 0.18 kg/m3
same,mass density,"[3]; 293.15 K, m1 = 0.1762",1001.1 ± 0.18 kg/m3
same,mass density,"[3]; 293.15 K, m1 = 0.2005",1001.5 ± 0.18 kg/m3
same,mass density,"[3]; 298.15 K, m1 = 0.02557",997.458 ± 0.18 kg/m3
same,mass density,"[3]; 298.15 K, m1 = 0.05326",997.903 ± 0.18 kg/m3
same,mass density,"[3]; 298.15 K, m1 = 0.07468",998.251 ± 0.18 kg/m3
same,mass density,"[3]; 298.15 K, m1 = 0.09388",998.559 ± 0.18 kg/m3
same,mass density,"[3]; 298.15 K, m1 = 0.1236",999.04 ± 0.18 kg/m3
same,mass density,"[3]; 298.15 K, m1 = 0.1442",999.367 ± 0.18 kg/m3
same,mass density,"[3]; 298.15 K, m1 = 0.1762",999.891 ± 0.18 kg/m3
same,mass density,"[3]; 298.15 K, m1 = 0.2005",1000.28 ± 0.18 kg/m3
same,mass density,"[3]; 303.15 K, m1 = 0.02557",996.057 ± 0.19 kg/m3
same,mass density,"[3]; 303.15 K, m1 = 0.05326",996.499 ± 0.19 kg/m3
same,mass density,"[3]; 303.15 K, m1 = 0.07468",996.841 ± 0.18 kg/m3
same,mass density,"[3]; 303.15 K, m1 = 0.09388",997.145 ± 0.18 kg/m3
same,mass density,"[3]; 303.15 K, m1 = 0.1236",997.618 ± 0.18 kg/m3
same,mass density,"[3]; 303.15 K, m1 = 0.1442",997.949 ± 0.18 kg/m3
same,mass density,"[3]; 303.15 K, m1 = 0.1762",998.455 ± 0.18 kg/m3
same,mass density,"[3]; 303.15 K, m1 = 0.2005",998.84 ± 0.18 kg/m3
same,mass density,"[3]; 308.15 K, m1 = 0.02557",994.437 ± 0.19 kg/m3
same,mass density,"[3]; 308.15 K, m1 = 0.05326",994.868 ± 0.19 kg/m3
same,mass density,"[3]; 308.15 K, m1 = 0.07468",995.206 ± 0.19 kg/m3
same,mass density,"[3]; 308.15 K, m1 = 0.09388",995.501 ± 0.19 kg/m3
same,mass density,"[3]; 308.15 K, m1 = 0.1236",995.97 ± 0.19 kg/m3
same,mass density,"[3]; 308.15 K, m1 = 0.1442",996.288 ± 0.19 kg/m3
same,mass density,"[3]; 308.15 K, m1 = 0.1762",996.793 ± 0.19 kg/m3
same,mass density,"[3]; 308.15 K, m1 = 0.2005",997.172 ± 0.18 kg/m3

# Source: the NIST ThermoML archive (doi:10.1021/je300358u)
